Where no end group is shown, it is not given here.
Tests used:
[1] = test system: autoantibodies against oxLDL in serum samples; test: OxLDL EIA with copper-oxidized human LDL as antigen; assay type: binding; settings: for Reactivity of autoantibodies, absorbance (OxLDL EIA): absorbance at 450 nm
Experimental: Various native and modified peptides, derived from the amino acid sequence of apoB-100 (Chen et al., supra), were tested as antigens suitable for use in EIA. The peptides were modified with MDA to produce similar oxidation specific epitopes as in oxLDL. The results of peptide EIA are compared to the results of oxLDL EIA which was optimized using copper-oxidized LDL as antigen; see Närvänen et al., Free Radical Biology & Medicine, in press.

[2] = test system: autoantibodies against oxLDL in serum samples; test: Peptide EIA: autoantibodies against peptides and peptide-MDA complexes; assay type: binding, human; parameters: key to reaction of autoantibodies (mean ±SD): absorbance at 450 nm, blank subtracted; settings: for amount of autoantibodies, mean absorbance after subtracting the blank: Patients (n = 20), six forms of p63 peptide antigen; for reaction of autoantibodies (mean ±SD): plate coated with natp63, MDA and MDAp63; for Reactivity of autoantibodies, absorbance (PEPTIDE EIA): absorbance at 450 nm, serum 1:20; for MDAp63:natp63 ratio: after subtracting the blank
Experimental: Native and MDA-modified peptides were tested always on the same plate. One half of the plate was coated with the native peptide (20 μg/ml) and the other half was coated with the MDA-modified peptide [(20 μg/ml) 100 μl/well in 100 mmol/l bicarbonate buffer (pH 9.5)]. Coated plates were incubated overnight at room temperature (RT) and then washed with an automatic washer (Wellwash 4 MK II, Labsystems Oy) three times with phosphate buffered saline (PBS) containing 0.05% Tween 20. Plates were blocked with PBS containing 1% human serum albumin (HSA) (150 μl/well) for 1 h at RT and washed as above. Serum samples were diluted 1:20 in PBS containing 0.2% HSA and 0.05% Tween 20 and pipetted 100 μl/well. Plates were incubated for 2 h at RT and washed as above. HRP-conjugated anti-human IgG (diluted 1:20 000 in the sample buffer) was added (100 μl) to each well and incubated for 1 h at RT. After washing, colour was developed by adding the peroxidase substrate (tetramethylbenzidine (TMB) as a chromagen, 100 μl/well) and incubating the plates for 30 min at room temperature in the dark. The reaction was stopped with 0.5 mol/l H2SO4 (100 μl/well) and absorbances were measured at 450 nm (Multiskan microplate reader, Labsystems Oy). The results are shown in Table 2 and are expressed as the absorbance measurement obtained for the native and the modified peptides or as the ratio between antibody binding to the native and the modified peptides after subtracting the blank control.
To find out whether autoantibodies react with the peptide, with MDA or both when peptide-MDA complexes are used as antigen, a microtiter plate was coated with natp63, MDA and MDAp63 antigen and the immunoassays performed. MDA antigen was prepared as MDAp63 antigen but without peptide and MDA was diluted for coating in the same way as MDAp63.

[3] = test system: antibodies of patient samples binding to coated peptide; test: Inhibition test: increasing concentrations of peptide added to sample diluent in peptide EIA; parameters: species or system human; settings: inhibitor 100 μg/ml
Experimental: The specificity of cyclic (p244cyc) and the corresponding linear peptide (p244) were tested in inhibition tests by adding increasing concentrations of peptides to sample diluent. P244cyc peptide inhibited with the highest inhibitor concentration (100 μg/ml), the average being 61% of the binding of 8 patient samples (FIG. 2A); 3 samples were inhibited by less than 50%. P244 inhibited with the highest inhibitor concentration (100 μg/ml), the average being 70% of the binding of 24 patient samples (FIG. 2B). 3 samples were inhibited less than 50%. P244 seemed to be more specific than p244cyc peptide. Finally, it was confirmed that the epitope of p244 is similar to p63 by coating plate with p244 and inhibiting the binding of patient samples with p63. P63 inhibited with the highest inhibitor concentration (100 μg/ml), the average being 53% of the binding of 22 patient samples (FIG. 3). 9 samples were inhibited less than 50%.

[4] = test system: antibodies of patient samples against the peptides; test: Specificity test: peptide EIA with 0.5 M sodium chloride added to sample diluent; assay type: binding, human; settings: mean of 20 patient samples
Experimental: The specificity of different antigens was tested by titration of peptides. […] In addition, the specificity of antibodies against cyclic and linear peptides, p244cyc and p244, was tested by adding 0.5 M sodium chloride to sample diluent. The titer of patient samples against p244, p244cyc and p63-MDA was 19%, 38% and 47% lower (mean of 20 patient samples), respectively, when salt was added to sample diluent. It appears that antibodies against p244 have the best specificity.

Compound	amount of autoantibodies, mean absorbance after subtracting the blank [2]	reaction of autoantibodies (mean ±SD) ([2]; control samples, n=23)	reaction of autoantibodies (mean ±SD) ([2]; patient samples, n=16)	titer of patient samples lower when salt was added to sample diluent [4] [%]	also measured
natLDL: native human low density lipoprotein, used as antigen					Reactivity of autoantibodies, absorbance (OxLDL EIA) ([1]; healthy controls (n = 17)): 0.351 ± 0.172; Reactivity of autoantibodies, absorbance (OxLDL EIA) ([1]; patients (n = 19)): 0.258 ± 0.170
P63-PEA-MDA: p63 modified with MDA and phosphatidylethanolamine (LSVKAQYKKNKHRHSITNPL; also: modified with MDA and phosphatidylethanolamine) [Peptide P63-PEA-MDA]	0.406—				
LSVKAQYKKNKHRHSITNPL [p63, 2, 20 amino acids, 4 lysines]	0.389—	0.282±0.100	0.222±0.041		average inhibition of the binding of patient samples ([3]; 22 patient samples, plate coated with p244, inhibited with p63): 53%; Reactivity of autoantibodies, absorbance (PEPTIDE EIA) ([2]; healthy controls (n = 17)): 0.216 ± 0.142; Reactivity of autoantibodies, absorbance (PEPTIDE EIA) ([2]; patients (n = 19)): 0.159 ± 0.079
O=CCC=O [MDA, Malondialdehyde, reference compound]		0.300±0.019	0.338±0.000		
oxLDL: copper-oxidized low density lipoprotein purified from human plasma, used as antigen					oxLDL:natLDL ratio ([1]; healthy controls (n = 17)): 1.886 ± 0.689; Reactivity of autoantibodies, absorbance (OxLDL EIA) ([1]; healthy controls (n = 17)): 0.591 ± 0.221; oxLDL:natLDL ratio ([1]; patients (n = 19)): 2.535 ± 1.430; Reactivity of autoantibodies, absorbance (OxLDL EIA) ([1]; patients (n = 19)): 0.600 ± 0.287
MDAp63: p63 modified with MDA (LSVKAQYKKNKHRHSITNPL; also: malondialdehyde (MDA) coupled via primary amines of lysines)	0.601—	0.533±0.077	0.431±0.040	47	Reactivity of autoantibodies, absorbance (PEPTIDE EIA) ([2]; healthy controls (n = 17)): 0.497 ± 0.184; MDAp63:natp63 ratio ([2]; healthy controls (n = 17)): 2.592 ± 0.751; Reactivity of autoantibodies, absorbance (PEPTIDE EIA) ([2]; patients (n = 19)): 0.418 ± 0.141; MDAp63:natp63 ratio ([2]; patients (n = 19)): 2.866 ± 0.924
p244cyc: cyclic p244 (CGLSVKAQYKKNKHRHSITNPLGC; also: cyclic (way of cyclisation not given here))	0.734—			38	average inhibition of the binding of patient samples ([3]; 8 patient samples, p244cyc): 61%
p244: a linear form of p63, which contains two extra amino acids (glycine and cysteine) at both ends of the peptide (CGLSVKAQYKKNKHRHSITNPLGC)	0.995—			19	average inhibition of the binding of patient samples ([3]; 24 patient samples, p244): 70%
P244cyc-MDA: cyclic p63 modified with MDA (CGLSVKAQYKKNKHRHSITNPLGC; also: cyclic (mode not given here), modified with MDA) [Peptide P244cyc-MDA]	0.521—				

From patent publication US20080261234A1, “Peptides and their use in assays for cardiovascular disease” (priority 2000, published 2008)
